{"source": "paper PMC9093646", "about": "“Physicochemical and Biochemical Evaluation of Amorphous Solid Dispersion of Naringenin Prepared Using Hot-Melt Extrusion” (Frontiers in Nutrition, 2022)", "key": {"[1]": {"experiment": "Dissolution test, Japanese Pharmacopoeia paddle method", "type": "physicochemical", "details": "test solution 1 (pH 1.2), after 120 min", "method": "The dissolution test was conducted using the paddle method described in the Japanese Pharmacopoeia ([26]). First, 900 mL dissolution test solution 1 or 2 was placed in the dissolution tester vessel and then 30 mg of crystalline NRG, 300 mg of PM, and 300 mg of SD were added to it. The temperature (37°C) and stirring rate (100 rpm) were maintained during the experiment. Samples were collected 2, 5, 10, 20, 30, 45, 60, 90, and 120 min after sample addition. The solutions were passed through 0.2-μm filters, and the filtrates were subjected to HPLC analysis."}, "[2]": {"experiment": "Pharmacokinetics after intravenous administration of serum containing unchanged NRG and NRG metabolites", "type": "in vivo, rat", "details": "rats", "method": "The same amount of NRG SD was intragastrically administered 5 min later. Blood was collected from the heart under isoflurane anesthesia 35 min after the first administration and stored at 4°C for several hours. Serum was then isolated by centrifugation and analyzed by liquid chromatography-tandem mass spectrometry (LC-MS/MS). […] Serum containing the unchanged NRG and NRG metabolites was administered via the tail vein at a dose of 500 μL/rat. […] The plasma was isolated by centrifugation. […] The mixture was centrifuged at 4°C, and 25 μL supernatant was collected and mixed with 75 μL of 30% (v/v) acetonitrile. […] The samples were incubated at 37°C overnight and extracted using the same method that was employed for those containing the unchanged NRG. LC-MS/MS analysis was performed using an ACQUITY UPLC system (Waters Corp., Milford, MA, United States) fitted with a cooling autosampler and a column oven with temperature control. Mass spectrometry was performed using a Waters Xevo TQ-S tandem quadrupole mass spectrometer (QQ-MS; Waters Corp.). Chromatographic separation was performed on an ACQUITY UPLC BEH C18 1.7 μm column (50 mm × 2.1 mm; Waters Corp.). […] The flow rate was set at 0.5 mL/min. The sample injection volume was 5 μL. […]. Positive electrospray ionization was used to generate the parental ions. Multiple reaction monitoring, using precursor → product ion transitions of m/z 273.04 → 152.97 and m/z 255.10 → 198.99, was used to quantify NRG and daidzein (internal standard), respectively."}, "[3]": {"experiment": "Pharmacokinetics after oral administration", "type": "in vivo, rat", "details": "rats, equivalent to 100 mg/kg NRG", "method": "Each solution was suspended in ion-exchange water immediately prior to administration. […] The blood was stored in heparinized hematocrit tubes, and the plasma was isolated by centrifugation. […] The samples were incubated at 37°C overnight and extracted using the same method that was employed for those containing the unchanged NRG. LC-MS/MS analysis was performed using an ACQUITY UPLC system (Waters Corp., Milford, MA, United States) fitted with a cooling autosampler and a column oven with temperature control. Mass spectrometry was performed using a Waters Xevo TQ-S tandem quadrupole mass spectrometer (QQ-MS; Waters Corp.). Chromatographic separation was performed on an ACQUITY UPLC BEH C18 1.7 μm column (50 mm × 2.1 mm; Waters Corp.). […] Positive electrospray ionization was used to generate the parental ions. Multiple reaction monitoring, using precursor → product ion transitions of m/z 273.04 → 152.97 and m/z 255.10 → 198.99, was used to quantify NRG and daidzein (internal standard), respectively."}, "Solubility test (HPLC)": {"experiment": "Solubility test (HPLC)", "type": "physicochemical", "details": "aqueous buffer, thermodynamic from solid, dissolution test solution 2 (pH 6.8), 37°C, read-out: water solubility", "method": "The prepared NRG SD (500 mg; equivalent to 50 mg NRG) was added to 2.5 mL dissolution test solution 2. The mixture was shaken vigorously at 37°C for 30 min and centrifuged ([15], [17]). The supernatant was then passed through a 0.2-μm filter and subjected to high-performance liquid chromatography (HPLC) analysis. The NRG concentration was determined using an HPLC system fitted with the LC-20AD pump and the SPD-M20 detector (Shimadzu Corp., Kyoto, Japan) ([15]). A reverse-phase column (CAPCELL PAK C18 MGII; 4.6 mm × 100 mm; 5 μm; Shiseido Co., Ltd., Tokyo, Japan) was operated at 40°C. The mobile phase consisted of a methanol-water (45:55, v/v) mixture with 0.05% (v/v) phosphoric acid, and it was ultrasonically degassed before use. The flow rate was set at 1 mL/min, and the detection wavelength was set at 289 nm. The sample injection volume was 10 μL. The HPLC was calibrated using standard methanol-water (50:50, v/v) NRG solutions in the concentration range of 0.125–40 μg/mL."}, "[4]": {"design": "method as in PMID 17047689", "details": "humans; cited from earlier work"}, "[5]": {"system": "acetic acid-induced writhing in rats", "experiment": "Acetic acid-induced writhing test", "type": "in vivo, rat", "details": "oral 5 min before i.p. acetic acid, counted over 25 min, crystalline NRG 100 mg/kg, NRG SD 30 or 100 mg/kg", "method": "The acetic acid-induced writhing test was performed according to the method of Pinho-Ribeiro et al. ([8]) with modifications. Rats aged 5–7 weeks were fasted for 16 h and divided into four groups of eight animals per group. The first group was intragastrically administered 10 mL/kg saline as a control. The second group was intragastrically administered crystalline NRG at 100 mg/kg BW. The third and fourth groups were intragastrically administered NRG SD equivalent to 30 mg/kg and 100 mg/kg BW NRG, respectively. After 5 min, each rat was intraperitoneally injected with 10 mL/kg of 0.8% (v/v) acetic acid in saline solution. Visceral pain intensity was quantified by enumerating the abdominal writhing within 0–25 min after the stimulus. The writhing response was characterized by the contraction of abdominal muscles and stretching of the hind limbs."}}, "data": [{"smiles": "O=C1C[C@@H](c2ccc(O)cc2)Oc2cc(O)cc(O)c21", "note": "[NRG, Naringenin]", "values": [{"measurement": "dissolved NRG", "setting": "[1]", "value": 40, "unit": "%"}, {"measurement": "clearance", "setting": "[2]; plasma, iv, i.v., serum 500 μL/rat, two-compartment model, read-out: CL, total body clearance (converted)", "value": 2.67, "unit": "mL/min"}, {"measurement": "Vd", "setting": "[2]; plasma, iv, i.v., serum 500 μL/rat, two-compartment model, read-out: Vd, volume of distribution", "value": "0.19 ± 0.08", "unit": "L/kg"}, {"measurement": "k el", "setting": "[2]; plasma, iv, i.v., serum 500 μL/rat, two-compartment model, read-out: ke, elimination rate constant (converted)", "value": 0.00509, "unit": "s⁻¹"}, {"measurement": "half-life", "setting": "[2]; plasma, iv, i.v., serum 500 μL/rat, two-compartment model, read-out: t1/2, elimination half-life time (converted)", "value": "0.99 ± 0.33", "unit": "h"}, {"measurement": "AUC(0-t)", "setting": "[2]; plasma, iv, serum 500 μL/rat, two-compartment model", "value": "120 ± 20", "unit": "ng·h/mL"}, {"measurement": "AUC(0-inf)", "setting": "[2]; plasma, iv, serum with 34.8 μg/mL unchanged NRG and 134.5 μg/mL NRG metabolites, 500 μL/rat, two-compartment model", "value": "130 ± 20", "unit": "ng·h/mL"}, {"measurement": "distribution volume as share of the body weight", "setting": "[2]; i.v.", "value": "~20", "unit": "%"}, {"measurement": "AUC(0-t)", "setting": "[3]; rat, plasma, po, 100 mg/kg, unchanged NRG in plasma, read-out: AUC0–1 h", "value": "30 ± 10", "unit": "ng·h/mL"}, {"measurement": "AUC(0-t)", "setting": "[3]; rat, plasma, po, 100 mg/kg, unchanged NRG in plasma, read-out: AUC0–t", "value": "740 ± 240", "unit": "ng·h/mL"}, {"measurement": "bioavailability", "setting": "[3]; rat, plasma, po, 100 mg/kg, unchanged NRG, read-out: F, absolute bioavailability", "value": "~0.5", "unit": "%"}, {"measurement": "AUC(0-inf)", "setting": "[3]; rat, unchanged NRG in plasma", "value": "740 ± 240", "unit": "ng·h/mL"}, {"measurement": "Cmax", "setting": "[3]; rat, unchanged NRG in plasma", "value": "130 ± 10", "unit": "ng/mL"}, {"measurement": "Tmax", "setting": "[3]; rat, unchanged NRG in plasma", "value": "4 ± 1.26", "unit": "h"}, {"measurement": "F, absolute bioavailability", "setting": "[3]; unchanged NRG", "value": "0.52 ± 0.17", "unit": "%"}, {"measurement": "solubility at 30 min", "setting": "Solubility test (HPLC)", "value": 70, "unit": "µg/mL"}, {"measurement": "cumulative urinary excretion rate relative to the oral NRG dose", "setting": "[4]", "value": "~5.8", "unit": "%"}, {"measurement": "number of writhings compared to the control", "setting": "[5]", "value": "significantly decreased"}]}]}
